The subject of test [1] is MaxiK-channel (large conductance Ca-activated K channel). The conditions noted are these: cited from earlier work.
Test [2] relates to potassium channels. The conditions noted are these: cited from earlier work.
Test [3] concerns Shaker K channel, inactivation-removed. The note with it: cited from earlier work.
Test [4] has as its target Shaker H4 Δ(6-46) K channel (inactivation-removed, Shaker IR) (Drosophila melanogaster, UniProt P08510, DEL6-46). Type of test: cell-based.

Sequence of Shaker H4 Δ(6-46) K channel (inactivation-removed, Shaker IR) (P08510 1-655 with tags or gaps DEL6-46): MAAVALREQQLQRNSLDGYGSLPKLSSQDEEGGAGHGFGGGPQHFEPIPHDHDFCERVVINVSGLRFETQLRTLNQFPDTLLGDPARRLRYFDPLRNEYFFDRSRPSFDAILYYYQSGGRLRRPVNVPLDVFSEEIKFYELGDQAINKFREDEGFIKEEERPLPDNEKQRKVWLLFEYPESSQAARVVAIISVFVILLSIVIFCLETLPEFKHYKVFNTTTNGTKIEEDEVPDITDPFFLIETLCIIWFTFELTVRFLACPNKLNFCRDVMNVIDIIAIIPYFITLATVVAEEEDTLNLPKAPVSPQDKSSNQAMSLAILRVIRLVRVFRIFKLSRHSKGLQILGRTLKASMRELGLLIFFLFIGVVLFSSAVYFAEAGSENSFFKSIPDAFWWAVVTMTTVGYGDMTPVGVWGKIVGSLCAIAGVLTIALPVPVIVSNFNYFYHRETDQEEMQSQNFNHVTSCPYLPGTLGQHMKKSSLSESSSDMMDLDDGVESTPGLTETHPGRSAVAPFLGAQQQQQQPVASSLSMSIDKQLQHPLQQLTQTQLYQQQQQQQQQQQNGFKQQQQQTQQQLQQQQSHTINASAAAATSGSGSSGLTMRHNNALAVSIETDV

Consider charybdotoxin [CTX], for which, in test [1], the “effective valence zδ in absence of internally present permeant cations” value was “zδ vanishes”. For the same substance, the “association rate constant, k on” value in test [2] was 6.1e+07 M⁻¹ s⁻¹.
Take tetraethylammonium [TEA^+]: the “effect of TEA^+ on CTX association and dissociation rates” value in test [1] was “only reduces the association rate of CTX”. In addition, the “effect of external TEA^+ on extent of κ-PVIIA blockade” value in test [3] is given as “reduces the extent of the blockade”. In addition, in test [4], the “effect on apparent association rate of κ-PVIIA” value was “decreases the apparent association rate”, the “effect on dissociation rate of κ-PVIIA” value is on record as “little effect on the dissociation rate” and the “underestimation of κ-PVIIA k on by 1 mM TEA^+” value is about 10%.

Source of the values: article PMC2229644 (The Journal of General Physiology, 1999).
